Values joined by “and” are separate entries in the source; they are usually repeats but may differ in a detail not shown here. Equal entries are not always repeated.
Settings: Liquid, Closed cell (Static) method

FC(F)(F)/C=C/Cl [(E)-1-chloro-3,3,3-trifluoroprop-1-ene]
Settings	vapor or sublimation pressure
234.15 K	7.2 kPa
237.15 K	8.5 kPa
240.15 K	10 kPa
243.15 K	11.7 kPa
246.15 K	13.7 kPa
249.15 K	16 kPa
252.15 K	18.6 kPa
255.15 K	21.6 kPa
258.15 K	25 kPa
261.15 K	28.8 kPa
264.15 K	33.1 kPa
267.15 K	38 kPa
270.15 K	43.4 kPa
273.15 K	49.4 kPa
276.15 K	56.1 kPa
279.15 K	63.6 kPa
282.15 K	71.7 kPa
285.15 K	80.7 kPa
288.15 K	90.6 kPa
291.15 K	101.7 kPa
293.15 K	108.8 kPa
294.15 K	113.6 kPa
295.15 K	117.2 kPa
297.15 K	126 kPa and 126.6 kPa and 126.4 kPa
299.15 K	135.1 kPa
300.15 K	140.5 kPa
301.15 K	144.9 kPa
303.15 K	155.3 kPa and 155.9 kPa
305.15 K	166.3 kPa
306.15 K	172.6 kPa
307.15 K	177.8 kPa
309.15 K	190.1 kPa and 190.6 kPa
311.15 K	202.9 kPa
312.15 K	210 kPa
313.15 K	216.1 kPa
315.15 K	230.1 kPa and 230.9 kPa
317.15 K	245 kPa
318.15 K	253.5 kPa
319.15 K	260.7 kPa
321.15 K	277.1 kPa and 277.7 kPa
323.15 K	296.3 kPa and 294.3 kPa
324.15 K	303.6 kPa
325.15 K	312.2 kPa
327.15 K	331 kPa and 331.3 kPa
329.15 K	350.5 kPa
330.15 K	361 kPa
331.15 K	371 kPa
333.15 K	392.5 kPa and 392.6 kPa
335.15 K	413.9 kPa
336.15 K	426.2 kPa
337.15 K	437.2 kPa
339.15 K	461.2 kPa and 461.9 kPa
341.15 K	486.3 kPa
342.15 K	499.8 kPa
343.15 K	513.2 kPa
345.15 K	540.4 kPa and 540 kPa
347.15 K	568.5 kPa
348.15 K	582.7 kPa
349.15 K	597.9 kPa
351.15 K	628.7 kPa and 628.1 kPa
353.15 K	660.4 kPa
354.15 K	675.8 kPa
357.15 K	726.3 kPa
360.15 K	779.6 kPa
363.15 K	835.8 kPa
366.15 K	894.8 kPa
369.15 K	957.1 kPa
372.15 K	1022.5 kPa
375.15 K	1091.3 kPa

Source: the NIST ThermoML archive (doi:10.1021/acs.jced.6b00916)
